Assay results: patent US8961930B2, “Isatin derivatives for use as in vivo imaging agents” (Imperial Innovations Limited, priority 2008, dated 2015)

How the values were obtained:
[1] = Log P determination, octanol-water partition coefficient; format: physicochemical; settings: read-out: Measured Log P
Protocol: Lipophilicity was assessed by measuring the octanol-water partition coefficient using the method of Barthel et al^18. Briefly, [^18F]11 (˜180 μCi in 25 μL ethanol) was diluted to a final volume of 100 μL using water to give the stock solution. Aliquots of stock solution (10 μL) were added to water (490 μL) and octan-1-ol (Aldrich anhydrous grade) (500 μL). The solutions were then shaken vigorously for 10 min then centrifuged (13201 g, 20° C., 30 min) Following centrifugation portions (200 μL) of the water and octanol layers were carefully removed and placed analyzed on a Cobra II Auto-Gamma counter (Packard Instruments, Meriden, Conn., USA) and compared. The octanol-water partition coefficient was obtained by dividing the octanol containing radioactivity by the water containing radioactivity. Log P was determined to be 1.61, as indicated in footnote c of Table 1 above.

PEO1 xenograft = test: In vivo [^18F]11 biodistribution and PET imaging, PEO1 xenograft; set-up: species or system mice; settings: for 60 min biodistribution, Bone / 60 min biodistribution, Kidney / 60 min biodistribution, L. Intestine / 60 min biodistribution, Liver / 60 min biodistribution, Lung / 60 min biodistribution, Muscle / 60 min biodistribution, S. Intestine / 60 min biodistribution, Spleen / 60 min biodistribution, Tumour: PEO1
Text: (§1) In vivo tumour models were established by subcutaneous injection of PEO1/4 (10×10^6 cells, with v/v matrigel, BD Biosciences, Oxford, UK), RIF-1 (5×10^5 cells) and LNM35 (1×10^6 cells) on the back of 6-8 weeks old female nu/nu-BALB/c or male C3H/hej mice (Harlan, Bicester, Oxfordshire, UK). Tumour growth was monitored every two days using electronic callipers, and tumour volume estimated using (π/6)×L×W×D (L=length, W=width and D=depth). All animal work was done by licensed investigators in accordance with the United Kingdom's “Guidance on the Operation of Animals (Scientific Procedures) Act 1986” (HMSO, London, United Kingdom, 1990) and in full compliance with government regulations and guidelines on the welfare of animals in experimental neoplasia.
(§2) For biodistribution studies, tumour-bearing mice were treated with 10 mg/kg cisplatin or vehicle for 24 h, anesthetized with isofluorane/O2/N2O and injected i.v. in the lateral tail vein with ˜100 μCi [^18F]11 for the indicated time. The different tissues were removed, weighted and placed in counting tubes for immediate Fluorine-18 radioactivity counting.
(§3) Tumour-bearing mice treated with Cisplatin (10 mg/kg for 24 h) or vehicle were scanned on a dedicated small animal PET scanner (quad-HIDAC; Oxford Positron Systems, Weston-on-the-Green, United Kingdom). Anesthetized animals were placed within a thermostatically controlled bed and positioned prone within the scanner. The bed was calibrated to provide a mouse rectal temperature of ˜37° C. A bolus injection of [^18F]11 (˜100 μCi) was given intravenously (i.v.) via the tail vein cannula and scanning commenced. Dynamic emission scans were acquired in list-mode format over 60 minutes. The acquired data were then sorted into 0.5-mm sinogram bins and 19 time frames (0.5×0.5×0.5 mm voxels; 4×15, 4×60, and 11×300 seconds) for image reconstruction, which was done by filtered back projection using a two-dimensional Hamming filter (cutoff 0.6). The image data-sets obtained were transferred to a SUN workstation (Ultra 10; SUN Microsystems, Santa Clara, Calif.) and visualized using the Analyze software (version 6.0; Biomedical Imaging Resource, Mayo Clinic, Rochester, Minn.). Cumulative images of the dynamic data composed of 0 to 1 minute after injection and 30 to 60 minutes after injection were used for visualization of radiotracer uptake and to define the regions of interest (ROI). The count densities were averaged for each ROI at each of the 19 time points to obtain a time versus radioactivity curve (TAC) for the ROIs. Tumour TAC was normalized to that of heart at each of the time points to obtain the normalized uptake value (NUV). The [^18F]9 data from […] were used as internal input function for normalizing tumour data. […] FRT is a useful variable in that it indicates the proportion of radiotracer delivered to the tumour that is retained. It therefore normalizes tumor [^18F]9 uptake to delivery.

PEO4 xenograft = test: In vivo [^18F]11 biodistribution and PET imaging, PEO4 xenograft; set-up: species or system mice; settings: for 60 min biodistribution, Bone / 60 min biodistribution, Kidney / 60 min biodistribution, L. Intestine / 60 min biodistribution, Liver / 60 min biodistribution, Lung / 60 min biodistribution, Muscle / 60 min biodistribution, S. Intestine / 60 min biodistribution, Spleen / 60 min biodistribution, Tumour: PEO4
Text: as §1, §2, §3

RIF-1 xenograft = test: In vivo [^18F]11 biodistribution and PET imaging, RIF-1 xenograft; set-up: species or system mice; settings: for 60 min biodistribution, Bone / 60 min biodistribution, Kidney / 60 min biodistribution, L. Intestine / 60 min biodistribution, Liver / 60 min biodistribution, Lung / 60 min biodistribution, Muscle / 60 min biodistribution, S. Intestine / 60 min biodistribution, Spleen / 60 min biodistribution, Tumour: RIF-1
Text: as §1, §2, §3
RIF-1 tumor was treated with vehicle (50% DMSO) or CDDP (10 mg/kg single dose). The [^18F]-derived radioactivity levels at 60 min post radiotracer injection were analysed and expressed as a ratio to that of blood. […] 1.5-fold increase in uptake of [^18F]11 for treated mice over vehicle treated mice. Data are mean±SEM and n=8 mice per group.

## O=C1C(=O)N(Cc2cn(CC[18F])nn2)c2ccc(S(=O)(=O)N3CCC[C@H]3COc3ccc(F)cc3F)cc21 [[^18F]11, (S)-1-((1-(2-Fluoroethyl)-1H-[1,2,3]-triazol-4-yl)methyl)-5-(2(2,4-difluorophenoxymethyl)-pyrrolidine-1-sulfonyl)isatin]
[1]
  logP at 10 min: 1.61
PEO1 xenograft; CDDP treated
  60 min biodistribution, Bone: 1.51 ± 1.02
  60 min biodistribution, Kidney: 8.53 ± 3.64
  60 min biodistribution, L. Intestine: 3.24 ± 1.81
  60 min biodistribution, Liver: 8.20 ± 2.09
  60 min biodistribution, Lung: 4.90 ± 1.05
  60 min biodistribution, Muscle: 1.34 ± 0.28
  60 min biodistribution, S. Intestine: 9.09 ± 5.82
  60 min biodistribution, Spleen: 1.65 ± 0.22
  60 min biodistribution, Tumour: 2.96 ± 1.25
PEO1 xenograft; Control
  60 min biodistribution, Bone: 0.64 ± 0.09
  60 min biodistribution, Kidney: 6.59 ± 1.94
  60 min biodistribution, L. Intestine: 1.81 ± 0.37
  60 min biodistribution, Liver: 9.98 ± 2.51
  60 min biodistribution, Lung: 4.25 ± 0.57
  60 min biodistribution, Muscle: 0.98 ± 0.14
  60 min biodistribution, S. Intestine: 4.27 ± 0.78
  60 min biodistribution, Spleen: 1.19 ± 0.26
  60 min biodistribution, Tumour: 1.37 ± 0.25
PEO1 xenograft; CDDP-treated mouse, PEO1 xenograft, 30-60 min
  PET image: uptake in the tumour: significant uptake
PEO1 xenograft; PEO1 xenografts, 60 min
  uptake in the tumour of CDDP treated vs control mice: significant increased uptake
PEO4 xenograft; CDDP treated
  60 min biodistribution, Bone: 1.44 ± 0.66
  60 min biodistribution, Kidney: 7.96 ± 3.34
  60 min biodistribution, L. Intestine: 2.89 ± 0.93
  60 min biodistribution, Liver: 8.22 ± 2.89
  60 min biodistribution, Lung: 4.73 ± 1.78
  60 min biodistribution, Muscle: 1.13 ± 0.22
  60 min biodistribution, S. Intestine: 10.43 ± 14.36
  60 min biodistribution, Spleen: 1.81 ± 0.80
  60 min biodistribution, Tumour: 2.15 ± 0.79
PEO4 xenograft; Control
  60 min biodistribution, Bone: 1.12 ± 0.47
  60 min biodistribution, Kidney: 8.04 ± 4.24
  60 min biodistribution, L. Intestine: 2.40 ± 1.88
  60 min biodistribution, Liver: 6.71 ± 1.56
  60 min biodistribution, Lung: 3.31 ± 0.83
  60 min biodistribution, Muscle: 0.88 ± 0.36
  60 min biodistribution, S. Intestine: 10.37 ± 10.58
  60 min biodistribution, Spleen: 1.26 ± 0.45
  60 min biodistribution, Tumour: 1.66 ± 0.41
PEO4 xenograft; CDDP-resistant PEO4 tumours, 60 min
  uptake in the tumour of CDDP treated vs control mice: not showing differences in uptake between control and treated
PEO4 xenograft; CDDP-treated mouse, PEO4 xenograft, 30-60 min
  PET image: uptake in the tumour: significant uptake
RIF-1 xenograft; CDDP treated
  60 min biodistribution, Bone: 1.78 ± 1.72
  60 min biodistribution, Kidney: 5.50 ± 2.59
  60 min biodistribution, L. Intestine: 2.88 ± 1.52
  60 min biodistribution, Liver: 10.58 ± 4.64
  60 min biodistribution, Lung: 3.23 ± 0.43
  60 min biodistribution, Muscle: 1.09 ± 0.54
  60 min biodistribution, S. Intestine: 11.08 ± 6.00
  60 min biodistribution, Spleen: 1.85 ± 0.76
  60 min biodistribution, Tumour: 1.31 ± 1.04
RIF-1 xenograft; Control
  60 min biodistribution, Bone: 1.06 ± 0.49
  60 min biodistribution, Kidney: 8.49 ± 2.00
  60 min biodistribution, L. Intestine: 2.66 ± 0.67
  60 min biodistribution, Liver: 11.36 ± 2.39
  60 min biodistribution, Lung: 4.47 ± 1.00
  60 min biodistribution, Muscle: 1.76 ± 1.33
  60 min biodistribution, S. Intestine: 14.93 ± 12.68
  60 min biodistribution, Spleen: 1.85 ± 0.19
  60 min biodistribution, Tumour: 0.96 ± 0.10
RIF-1 xenograft; CDDP-treated mouse, RIF-1 xenograft, 30-60 min
  PET image: uptake in the tumour: significant uptake
RIF-1 xenograft; RIF-1 tumour, CDDP 10 mg/kg single dose, 60 min post injection
  increase in tumour uptake (ratio to blood), treated over vehicle treated mice: ~1.5 fold
